# Measurements published in patent publication US6683083B1, “Anticancer agents” (priority 1999, dated 2004).
# “And” between values parts separate entries of the source, which are not always exact repeats. Identical values can stand only once.
# Columns and labels:
# [1] = Entire body state and weight of tumor-bearing nude mice; type: in vivo, female nude mice BALB/c nu/nu; conditions: 3 and 5 mg/kg by tail injection, once a day on 7th, 8th, 10th, 11th days after implantation
# Protocol: For six subjects of the group number 1, the compound 1 was administered by injecting from each tail of the nude mice on each of the 7th, 8th, 10th and 11th days after the implantation, at 3 mg of the compound 1 per kg of weight once a day. For six subjects of the group number 2, the compound 1 was administered by injecting from each tail of the nude mice on each of the 7th, 8th, 10th and 11th days after the implantation, at 5 mg of the compound 1 per kg of weight once a day. The subjects of the group number […] to be the controls were a group having no administration of the compound 1, and neither administration nor treatment of the compound 1 was performed on the controls. […] However, in the result of each tumor volume of the mice, a specific difference was found between the subjects of the group numbers 1 to 3. The measurement of the tumor volumes is shown in the following Table 2, and the average of the tumor volumes in each of the groups is shown in Table 3. In Tables 2 and 3, each size of the tumor volumes after the 2nd day is represented on condition that the size of the tumor volume on the 1st day is 100.
# [2] = tested on: human non-small-cell lung cancer cell line PC-14; test: PC-14 subcutaneous implant in nude mice, tumor volume; type: in vivo, female nude mice BALB/c nu/nu; design: key: relative tumor volume, 1st day = 100; volume = minor axis^2 × major axis; conditions: 1st day = 100
# [3] = tested on: various cancers; test: Overall carcinostatic effect, results of examples 1 to 3; conditions: overall statement
# [4] = tested on: SBC-3 (human small-cell lung cancer cell line); test: MTT assay, in vitro antitumor effect; type: cell-based; conditions: SBC-3, 96 hours incubation, average±error range of triple culture tests, read-out: amount of compound 1 required to achieve IC50
# From the text: (§1) (2) Verification of In Vitro Antitumor Effects on Various Human Cancer Cell Lines According to the MTT Assay Method.
# (§2) Each single cell of a human non-small-cell lung cancer cell line PC-14, a human non-small-cell lung cancer cell line SBC-3, a human […] cell line MCF-7, a human non-small-cell ovarian cancer cell line SKOV3, a human leukemia cell line HL60 and a human colon cancer cell line WiDR was obtained by trypsinization or by using a cell scraper in RPMI 1640 medium to prepare a suspension containing 100 cells per 15 μl. The compound 1 as an anticancer agent was dissolved in dimethylsulfoxide and then the solution was added to the suspension to make the concentration of the compound fall within a range between 0.5 and 1 μM, and the resulting suspension was poured into a 96-perforated plate at 150 μl/well. This plate was maintained at a temperature of 37° C. under 5% of carbon dioxide and saturated vapor for 96 hours to incubate the suspension. After incubation, the incubated suspension was combined with 20 μl of MTT (3-(4,5-dimethylthiazol-2-yl)-2,5-diphenyltetrazoliumbromide) reagent dissolved in D-PBS (−) at a concentration of 5 mg/ml, and was further incubated at 37° C. for 4 hours. After the completion of incubation, the entire plate was centrifuged to discharge supernatant. Then, 200 μl of dimethyl sulfoxide was added to dissolve purple formazan which is created from yellow MTT by the action of dehydrogenase lying in mitochondria in the cancer cell, and the amount of the created formazan was determined by reading the absorbance at a wave length ranging from 562 to 630 nm with a multi-plate reader. Given that the average growth rate of a negative control is […] and the average growth rate of a positive control is 100%, a tumor-volume growth curve was plotted, and the concentration of compound 1 required for 50% of human cancer-cell proliferation suppression was calculated.
# (§3) The values in Table 1 indicate each value of the concentration required for 50% of human cancer-cell proliferation suppression from the MTT assay in triple culture tests of independent cancer cells using compound 1 by average±error range (μM).
# [5] = tested on: HL60 (human leukemia cell line); test: MTT assay, in vitro antitumor effect; type: cell-based; conditions: HL60, 96 hours incubation, average±error range of triple culture tests, read-out: amount of compound 1 required to achieve IC50
# From the text: as §1, §2, §3
# [6] = tested on: WiDR (human colon cancer cell line); test: MTT assay, in vitro antitumor effect; type: cell-based; conditions: 96 hours incubation, average±error range of triple culture tests, read-out: amount of compound 1 required to achieve IC50
# From the text: as §1, §2, §3
# [7] = tested on: human non-small-cell lung cancer cell line PC-14; test: MTT assay, in vitro antitumor effect; type: cell-based; conditions: PC-14, 96 hours incubation, average±error range of triple culture tests, read-out: amount of compound 1 required to achieve IC50
# From the text: as §1, §2, §3
# [8] = tested on: MCF-7 (human mammary cancer cell line); test: MTT assay, in vitro antitumor effect; type: cell-based; conditions: MCF-7, 96 hours incubation, average±error range of triple culture tests, read-out: amount of compound 1 required to achieve IC50
# From the text: as §1, §2, §3
# [9] = tested on: SKOV3 (human ovarian cancer cell line); test: MTT assay, in vitro antitumor effect; type: cell-based; conditions: SKOV3, 96 hours incubation, average±error range of triple culture tests, read-out: amount of compound 1 required to achieve IC50
# From the text: as §1, §2, §3
# [10] = tested on: fibroblasts NIH3T3; test: Fibroblast cell-proliferation suppression (cell count); type: cell-based; conditions: NIH3T3, 1×10^−6 M and 3×10^−6 M, cell number every 24 hours, FIG. 1
# Protocol: FIG. 1 is a graph showing a cell-proliferation suppressing action against fibroblast of the compound represented by the above general formula [1] and the like shown in Example 2.
# Nine plates were prepared for each of control and compound 1 groups each having a concentration of 1×10^−6 M and a compound 1 group having a concentration of 3×10^−6 M (total of 27 plates). The number 4.4×10^5 of fibroblasts NIH3T3 were added to each of the 27 plates, and D-MEM culture solution added with 10% FBS (fetal bovine serum) was added thereto. Each of the controls was incubated with added water corresponding to the added amount of compound 1. The number of cells in 3 plates of each of the groups was measured every 24 hours, and the measured numbers were averaged to provide an average cell number per plate.
structure (smiles),measurement,setting,value
"OC(CN1CCN(C(c2ccccc2)c2ccccc2)CC1)CN1CCC(O)(c2ccc(Cl)cc2)CC1 (stereo not shown) [compound 1, 1-[1-4-(diphenylmethyl)piperazinyl]-3-[1-{4-(4-chlorophenyl)-4-hydroxy}piperidinyl]-2-propanol]",entire body state and weight of the mice versus control,[1],substantially no difference
same,"tumor volume, average (6 mice)","[2]; group No. 2 (3 mg/kg tail injection), 2 day",89.79
same,"tumor volume, individual mice","[2]; group No. 2 (3 mg/kg tail injection), 2 day, 3 mg/kg",45.35 and 120.51 and 139.67 and 73.21 and 73.29 and 66.68
same,"tumor volume, average (6 mice)","[2]; group No. 2 (3 mg/kg tail injection), 3 day",67.01
same,"tumor volume, individual mice","[2]; group No. 2 (3 mg/kg tail injection), 3 day, 3 mg/kg",20.22 and 98.14 and 85.27 and 52.91 and 62.47 and 83.06
same,"tumor volume, average (6 mice)","[2]; group No. 2 (3 mg/kg tail injection), 4 day",68.38
same,"tumor volume, individual mice","[2]; group No. 2 (3 mg/kg tail injection), 4 day, 3 mg/kg",46.17 and 80.18 and 105.01 and 42.19 and 31.02 and 85.73
same,"tumor volume, average (6 mice)","[2]; group No. 2 (3 mg/kg tail injection), 5 day",46.68
same,"tumor volume, individual mice","[2]; group No. 2 (3 mg/kg tail injection), 5 day, 3 mg/kg",31.44 and 66.58 and 67.76 and 22.55 and 18.55 and 51.09
same,"tumor volume, average (6 mice)","[2]; group No. 2 (3 mg/kg tail injection), 6 day",47.73
same,"tumor volume, individual mice","[2]; group No. 2 (3 mg/kg tail injection), 6 day, 3 mg/kg",30.93 and 122.90 and 55.16 and 0.00 and 10.11 and 51.30
same,"tumor volume, average (6 mice)","[2]; group No. 2 (3 mg/kg tail injection), 7 day",42.99
same,"tumor volume, individual mice","[2]; group No. 2 (3 mg/kg tail injection), 7 day, 3 mg/kg",52.68 and 99.04 and 75.58 and 0.00 and 12.98 and 47.68
same,"tumor volume, average (6 mice)","[2]; group No. 2 (3 mg/kg tail injection), 8 day",58.33
same,"tumor volume, individual mice","[2]; group No. 2 (3 mg/kg tail injection), 8 day, 3 mg/kg",56.49 and 127.45 and 130.56 and 0.00 and 4.97 and 30.49
same,"tumor volume, average (6 mice)","[2]; group No. 3 (5 mg/kg tail injection), 2 day",78.63
same,"tumor volume, individual mice","[2]; group No. 3 (5 mg/kg tail injection), 2 day, 5 mg/kg",55.40 and 63.47 and 93.53 and 68.25 and 90.42 and 80.68
same,"tumor volume, average (6 mice)","[2]; group No. 3 (5 mg/kg tail injection), 3 day",75.11
same,"tumor volume, individual mice","[2]; group No. 3 (5 mg/kg tail injection), 3 day, 5 mg/kg",58.27 and 43.51 and 72.22 and 113.73 and 70.23 and 92.68
same,"tumor volume, average (6 mice)","[2]; group No. 3 (5 mg/kg tail injection), 4 day",74.99
same,"tumor volume, individual mice","[2]; group No. 3 (5 mg/kg tail injection), 4 day, 5 mg/kg",79.34 and 40.73 and 83.65 and 123.79 and 36.86 and 84.55
same,"tumor volume, average (6 mice)","[2]; group No. 3 (5 mg/kg tail injection), 5 day",60.45
same,"tumor volume, individual mice","[2]; group No. 3 (5 mg/kg tail injection), 5 day, 5 mg/kg",47.44 and 40.65 and 62.95 and 103.32 and 28.95 and 79.20
same,"tumor volume, average (6 mice)","[2]; group No. 3 (5 mg/kg tail injection), 6 day",53.82
same,"tumor volume, individual mice","[2]; group No. 3 (5 mg/kg tail injection), 6 day, 5 mg/kg",33.96 and 32.21 and 54.93 and 135.18 and 14.65 and 51.96
same,"tumor volume, average (6 mice)","[2]; group No. 3 (5 mg/kg tail injection), 7 day",64.86
same,"tumor volume, individual mice","[2]; group No. 3 (5 mg/kg tail injection), 7 day, 5 mg/kg",34.07 and 36.27 and 86.76 and 129.59 and 17.36 and 85.12
same,"tumor volume, average (6 mice)","[2]; group No. 3 (5 mg/kg tail injection), 8 day",62.63
same,"tumor volume, individual mice","[2]; group No. 3 (5 mg/kg tail injection), 8 day, 5 mg/kg",47.99 and 15.80 and 102.87 and 140.33 and 7.22 and 61.54
same,carcinostatic effect (results of examples 1 to 3),[3],high carcinostatic effect
same,IC50,[4],460 ± 30 nM
same,IC50,[5],1180 ± 50 nM
same,IC50,[6],410 ± 30 nM
same,IC50,[7],1020 ± 200 nM
same,IC50,[8],600 ± 80 nM
same,IC50,[9],850 ± 20 nM
same,cell-proliferation suppressing action against fibroblast,[10],effectiveness to proliferative lesions
